In patent US20260262643A1, “HERBICIDAL BENZOXAZINES” (FMC CORPORATION, priority 2022, published 2026):

Tests used:
barnyardgrass [1] = test: Test D flooded paddy test; type: in vivo, Echinochloa crus-galli; details: 250 g ai/ha, applied to paddy water, visual rating after 13 to 14 days, scale 0 to 100 (0 no effect, 100 complete control)
In short: (§1)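 At the 2-leaf stage, floodwater 3 cm deep received the test compound; that depth persisted throughout. Plants scored visually 13 to 14 days on, 0 (no effect) to 100 (complete control), dash indicating no result.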

oat, wild [2] = test: Test C postemergence; type: in vivo, Avena fatua; details: 10 days
In short: (§2)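 Visual injury ratings on a 0–100 scale (100 = complete control) were made against untreated controls 10 days after treatment in the greenhouse. Compounds, formulated with surfactant in non-phytotoxic solvent, were sprayed on soil preemergence or onto one- to two-leaf plants 2–10 cm tall postemergence.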

ryegrass, Italian [3] = test: Test C preemergence; type: in vivo, Lolium multiflorum; details: 0 to 100 scale (0 no effect, 100 complete control); for Plant response rating, Ryegrass, Italian: Preemergence, 500 g ai/ha, visual rating after 10 days; for Ryegrass, Italian plant response rating: Test C, preemergence, 125 g ai/ha
In short: as §2

sedge, umbrella = test: Test D flooded paddy test; type: in vivo, Cyperus difformis; details: 250 g ai/ha, applied to paddy water, visual rating after 13 to 14 days, scale 0 to 100 (0 no effect, 100 complete control)
In short: as §1

barnyardgrass [4] = test: Test C postemergence; type: in vivo, Echinochloa crusgalli; details: 10 days
In short: as §2

corn [5] = test: Test C preemergence; type: in vivo, Zea mays; details: 0 to 100 scale (0 no effect, 100 complete control); for Plant response rating, Corn: Preemergence, 500 g ai/ha, visual rating after 10 days; for Corn plant response rating: Test C, preemergence, 125 g ai/ha
In short: as §2

soybean [6] = test: Test C postemergence; type: in vivo, Glycine max; details: 10 days
In short: as §2

ragweed [7] = test: Test C postemergence; type: in vivo, Ambrosia artemisiifolia; details: 10 days
In short: as §2

green foxtail [8] = test: Test C preemergence; type: in vivo, Setaria viridis; details: 0 to 100 scale (0 no effect, 100 complete control); for Plant response rating, Foxtail, Green: Preemergence, 500 g ai/ha, visual rating after 10 days; for Foxtail, Green plant response rating: Test C, preemergence, 125 g ai/ha
In short: as §2

corn [9] = test: Test C postemergence; type: in vivo, Zea mays; details: 10 days
In short: as §2

kochia [10] = test: Test C postemergence; type: in vivo, Bassia scoparia; details: 10 days
In short: as §2

pigweed, palmer [11] = test: Test C postemergence; type: in vivo, Amaranthus palmeri; details: 10 days
In short: as §2

kochia [12] = test: Test C preemergence; type: in vivo, Bassia scoparia; details: 0 to 100 scale (0 no effect, 100 complete control); for Plant response rating, Kochia: Preemergence, 500 g ai/ha, visual rating after 10 days
In short: as §2

ragweed [13] = test: Test C preemergence; type: in vivo, Ambrosia artemisiifolia; details: 0 to 100 scale (0 no effect, 100 complete control); for Plant response rating, Ragweed: Preemergence, 500 g ai/ha, visual rating after 10 days; for Ragweed plant response rating: Test C, preemergence, 125 g ai/ha
In short: as §2

horseweed = test: Test C postemergence; type: in vivo, Erigeron canadensis; details: 10 days
In short: as §2

ryegrass, Italian [14] = test: Test C postemergence; type: in vivo, Lolium multiflorum; details: 10 days
In short: as §2

soybean [15] = test: Test C preemergence; type: in vivo, Glycine max; details: 0 to 100 scale (0 no effect, 100 complete control); for Plant response rating, Soybean: Preemergence, 500 g ai/ha, visual rating after 10 days; for Soybean plant response rating: Test C, preemergence, 125 g ai/ha
In short: as §2

barnyardgrass [16] = test: Test C preemergence; type: in vivo, Echinochloa crusgalli; details: 0 to 100 scale (0 no effect, 100 complete control); for Plant response rating, Barnyardgrass: Preemergence, 500 g ai/ha, visual rating after 10 days; for Barnyardgrass plant response rating: Test C, preemergence, 125 g ai/ha
In short: as §2

ducksalad = test: Test D flooded paddy test; type: in vivo, Heteranthera limosa; details: 250 g ai/ha, applied to paddy water, visual rating after 13 to 14 days, scale 0 to 100 (0 no effect, 100 complete control)
In short: as §1

wheat [17] = test: Test C preemergence; type: in vivo, Triticum aestivum; details: 0 to 100 scale (0 no effect, 100 complete control); for Plant response rating, Wheat: Preemergence, 500 g ai/ha, visual rating after 10 days; for Wheat plant response rating: Test C, preemergence, 125 g ai/ha
In short: as §2

galium = test: Test C postemergence; type: in vivo, Galium aparine; details: 10 days
In short: as §2

blackgrass [18] = test: Test C preemergence; type: in vivo, Alopecurus myosuroides; details: 0 to 100 scale (0 no effect, 100 complete control); for Plant response rating, Blackgrass: Preemergence, 500 g ai/ha, visual rating after 10 days; for Blackgrass plant response rating: Test C, preemergence, 125 g ai/ha
In short: as §2

green foxtail [19] = test: Test C postemergence; type: in vivo, Setaria viridis; details: 10 days
In short: as §2

oat, wild [20] = test: Test C preemergence; type: in vivo, Avena fatua; details: 0 to 100 scale (0 no effect, 100 complete control); for Plant response rating, Oat, Wild: Preemergence, 500 g ai/ha, visual rating after 10 days; for Oat, Wild plant response rating: Test C, preemergence, 125 g ai/ha
In short: as §2

rice = test: Test D flooded paddy test; type: in vivo, Oryza sativa; details: 250 g ai/ha, applied to paddy water, visual rating after 13 to 14 days, scale 0 to 100 (0 no effect, 100 complete control)
In short: as §1

pigweed, palmer [21] = test: Test C preemergence; type: in vivo, Amaranthus palmeri; details: 0 to 100 scale (0 no effect, 100 complete control); for Plant response rating, Pigweed, Palmer: Preemergence, 500 g ai/ha, visual rating after 10 days; for Pigweed, Palmer plant response rating: Test C, preemergence, 125 g ai/ha
In short: as §2

blackgrass [22] = test: Test C postemergence; type: in vivo, Alopecurus myosuroides; details: 10 days
In short: as §2

wheat [23] = test: Test C postemergence; type: in vivo, Triticum aestivum; details: 10 days
In short: as §2

[24] = 125 g ai/ha, postemergence, 0 to 100 scale, 0 no effect, 100 complete control
[25] = Postemergence, 500 g ai/ha, visual 0 to 100 scale (0 no effect, 100 complete control)

`CC(C)=C(C)c1ncn(-c2cccc(C(=O)N3C[C@H](C)Oc4c(C)cccc43)c2)n1` [Compound 262] was tested, and the “Plant response rating, Barnyardgrass (Flood)” value (barnyardgrass [1]) was 0, the “Plant response rating, Oat, Wild” value (oat, wild [2]; [24]) was 60 and the “Plant response rating, Oat, Wild” value (oat, wild [2]; [25]) was 80. For the same molecule, the “Plant response rating, Ryegrass, Italian” value (ryegrass, Italian [3]) was 90, the “Ryegrass, Italian plant response rating” value (ryegrass, Italian [3]) was 70 and the “Plant response rating, Sedge, Umbrella (Flood)” value (sedge, umbrella) was 0. The “Plant response rating, Barnyardgrass” value (barnyardgrass [4]; [24]) was 60, the “Plant response rating, Barnyardgrass” value (barnyardgrass [4]; [25]) was 90 and the “Plant response rating, Corn” value (corn [5]) was 40. The “Corn plant response rating” value (corn [5]) was 40, the “Plant response rating, Soybean” value (soybean [6]; [24]) was 100 and the “Plant response rating, Soybean” value (soybean [6]; [25]) was 100. For the same molecule, the “Plant response rating, Ragweed” value (ragweed [7]; [24]) was 40, the “Plant response rating, Ragweed” value (ragweed [7]; [25]) was 70 and the “Plant response rating, Foxtail, Green” value (green foxtail [8]) was 100. The “Foxtail, Green plant response rating” value (green foxtail [8]) was 100, the “Plant response rating, Corn” value (corn [9]; [24]) was 60 and the “Plant response rating, Corn” value (corn [9]; [25]) was 80. The “Plant response rating, Kochia” value (kochia [10]; [24]) was 50, the “Plant response rating, Kochia” value (kochia [10]; [25]) was 90 and the “Plant response rating, Pigweed, Palmer” value (pigweed, palmer [11]; [24]) was 70. For the same molecule, the “Plant response rating, Pigweed, Palmer” value (pigweed, palmer [11]; [25]) was 90, the “Plant response rating, Kochia” value (kochia [12]) was 80 and the “Kochia plant response rating” value (kochia [12]; Test C, preemergence, 125 g ai/ha) was 40. For the same molecule, the “Plant response rating, Ragweed” value (ragweed [13]) was 60, the “Ragweed plant response rating” value (ragweed [13]) was 0 and the “Plant response rating, Horseweed” value (horseweed; [24]) was 10. The “Plant response rating, Horseweed” value (horseweed; [25]) was 10, the “Plant response rating, Ryegrass, Italian” value (ryegrass, Italian [14]; [24]) was 80 and the “Plant response rating, Ryegrass, Italian” value (ryegrass, Italian [14]; [25]) was 90. The “Plant response rating, Soybean” value (soybean [15]) was 70, the “Soybean plant response rating” value (soybean [15]) was 30 and the “Plant response rating, Barnyardgrass” value (barnyardgrass [16]) was 90. For the same molecule, the “Barnyardgrass plant response rating” value (barnyardgrass [16]) was 60, the “Plant response rating, Ducksalad (Flood)” value (ducksalad) was 0 and the “Plant response rating, Wheat” value (wheat [17]) was 70. The “Wheat plant response rating” value (wheat [17]) was 20, the “Plant response rating, Galium” value (galium; [24]) was 100 and the “Plant response rating, Galium” value (galium; [25]) was 100. For the same molecule, the “Plant response rating, Blackgrass” value (blackgrass [18]) was 90, the “Blackgrass plant response rating” value (blackgrass [18]) was 60 and the “Plant response rating, Foxtail, Green” value (green foxtail [19]; [24]) was 70. For the same molecule, the “Plant response rating, Foxtail, Green” value (green foxtail [19]; [25]) was 90, the “Plant response rating, Oat, Wild” value (oat, wild [20]) was 80 and the “Oat, Wild plant response rating” value (oat, wild [20]) was 50. For the same molecule, the “Plant response rating, Rice (Flood)” value (rice) was 0, the “Plant response rating, Pigweed, Palmer” value (pigweed, palmer [21]) was 90 and the “Pigweed, Palmer plant response rating” value (pigweed, palmer [21]) was 70. The “Plant response rating, Blackgrass” value (blackgrass [22]; [25]) was 90, the “Plant response rating, Wheat” value (wheat [23]; [24]) was 30 and the “Plant response rating, Wheat” value (wheat [23]; [25]) was 50.

With `COC[C@H]1CN(C(=O)c2cc(-n3cncn3)ccc2C)c2cccc(Cl)c2O1` [Compound 263] the “Plant response rating, Barnyardgrass (Flood)” value (barnyardgrass [1]) was 20, the “Plant response rating, Oat, Wild” value (oat, wild [2]; [24]) was 10 and the “Plant response rating, Oat, Wild” value (oat, wild [2]; [25]) was 50. The “Plant response rating, Ryegrass, Italian” value (ryegrass, Italian [3]) was 90, the “Ryegrass, Italian plant response rating” value (ryegrass, Italian [3]) was 80 and the “Plant response rating, Sedge, Umbrella (Flood)” value (sedge, umbrella) was 85. The “Plant response rating, Barnyardgrass” value (barnyardgrass [4]; [24]) was 70, the “Plant response rating, Barnyardgrass” value (barnyardgrass [4]; [25]) was 90 and the “Plant response rating, Corn” value (corn [5]) was 60. The “Corn plant response rating” value (corn [5]) was 20, the “Plant response rating, Soybean” value (soybean [6]; [24]) was 100 and the “Plant response rating, Soybean” value (soybean [6]; [25]) was 100. The “Plant response rating, Ragweed” value (ragweed [7]; [24]) was 40, the “Plant response rating, Ragweed” value (ragweed [7]; [25]) was 90 and the “Plant response rating, Foxtail, Green” value (green foxtail [8]) was 100. The “Foxtail, Green plant response rating” value (green foxtail [8]) was 90, the “Plant response rating, Corn” value (corn [9]; [24]) was 30 and the “Plant response rating, Corn” value (corn [9]; [25]) was 90. The “Plant response rating, Kochia” value (kochia [10]; [24]) was 70, the “Plant response rating, Kochia” value (kochia [10]; [25]) was 70 and the “Plant response rating, Pigweed, Palmer” value (pigweed, palmer [11]; [24]) was 40. The “Plant response rating, Pigweed, Palmer” value (pigweed, palmer [11]; [25]) was 80, the “Plant response rating, Kochia” value (kochia [12]) was 70 and the “Plant response rating, Ragweed” value (ragweed [13]) was 30. For the same molecule, the “Ragweed plant response rating” value (ragweed [13]) was 0, the “Plant response rating, Horseweed” value (horseweed; [24]) was 0 and the “Plant response rating, Horseweed” value (horseweed; [25]) was 20. The “Plant response rating, Ryegrass, Italian” value (ryegrass, Italian [14]; [24]) was 80, the “Plant response rating, Ryegrass, Italian” value (ryegrass, Italian [14]; [25]) was 90 and the “Plant response rating, Soybean” value (soybean [15]) was 90. For the same molecule, the “Soybean plant response rating” value (soybean [15]) was 80, the “Plant response rating, Barnyardgrass” value (barnyardgrass [16]) was 90 and the “Barnyardgrass plant response rating” value (barnyardgrass [16]) was 70. The “Plant response rating, Ducksalad (Flood)” value (ducksalad) was 65, the “Plant response rating, Wheat” value (wheat [17]) was 40 and the “Wheat plant response rating” value (wheat [17]) was 20. For the same molecule, the “Plant response rating, Galium” value (galium; [24]) was 100, the “Plant response rating, Galium” value (galium; [25]) was 100 and the “Plant response rating, Blackgrass” value (blackgrass [18]) was 90. For the same molecule, the “Blackgrass plant response rating” value (blackgrass [18]) was 50, the “Plant response rating, Foxtail, Green” value (green foxtail [19]; [24]) was 80 and the “Plant response rating, Foxtail, Green” value (green foxtail [19]; [25]) was 90. The “Plant response rating, Oat, Wild” value (oat, wild [20]) was 70, the “Oat, Wild plant response rating” value (oat, wild [20]) was 30 and the “Plant response rating, Rice (Flood)” value (rice) was 0. For the same molecule, the “Plant response rating, Pigweed, Palmer” value (pigweed, palmer [21]) was 100, the “Pigweed, Palmer plant response rating” value (pigweed, palmer [21]) was 70 and the “Plant response rating, Blackgrass” value (blackgrass [22]; [24]) was 80. The “Plant response rating, Blackgrass” value (blackgrass [22]; [25]) was 90, the “Plant response rating, Wheat” value (wheat [23]; [24]) was 30 and the “Plant response rating, Wheat” value (wheat [23]; [25]) was 80.
